PMC8795197, “Safety and activity of WX-0593 (Iruplinalkib) in patients with ALK- or ROS1-rearranged advanced non-small cell lung cancer: a phase 1 dose-escalation and dose-expansion trial” (Signal Transduction and Targeted Therapy, 2022)
pIC50: −log10 of the molar value. Where two headings read alike, the source gives them in different places.

Assays:
Karpas299 (NPM-ALK) = experiment: Cell proliferation inhibition assay; type: cell-based
Ba/F3 ALK-T1151Tins = experiment: Growth of transfected Ba/F3 cells (CellTiter-Glo, 3 days); type: cell-based; conditions: Mus musculus, BaF3; ALK-T1151Tins; read-out: IC50
Protocol: (§1) Harvest cells during the logarithmic growth period and count cells using blood counting chamber. Adjust cell concentration with culture medium. Add 90µl cell suspensions to two 96-well plates to the final cell density as described before. Incubate the plate overnight in humidified incubator at 37℃ with 5% CO2. Dispense 10µl drug solution (10×) to each well (triplicate for each concentration), and the DMSO final concentration in culture medium is 0.1% [v/v]. Culture the plates for 3 days. On Day 3, Read luminescent using Multi Label Reader. The software of GraphPad Prism was used to calculate IC50. The graphical curves were fitted using a nonlinear regression model with a sigmoidal dose response.

Ba/F3 ALK-C1156Y = experiment: as above; type: cell-based; conditions: Mus musculus, BaF3; ALK-C1156Y; read-out: IC50
Protocol: as §1

Ba/F3 ALK-G1202R = experiment: as above; type: cell-based; conditions: Mus musculus, BaF3; ALK-G1202R; read-out: IC50
Protocol: as §1

Ba/F3 ALK-WT = experiment: as above; type: cell-based; conditions: Mus musculus, BaF3; ALK-WT; read-out: IC50
Protocol: as §1

Ba/F3 ALK-I1171S = experiment: as above; type: cell-based; conditions: Mus musculus, BaF3, ALK-I1171S, read-out: IC50
Protocol: as §1

Ba/F3 ALK-L1196M = experiment: as above; type: cell-based; conditions: Mus musculus, BaF3; ALK-L1196M; read-out: IC50
Protocol: as §1

Ba/F3 ALK-V1180L = experiment: as above; type: cell-based; conditions: Mus musculus, BaF3; ALK-V1180L; read-out: IC50
Protocol: as §1

Ba/F3 ALK-G1202del = experiment: as above; type: cell-based; conditions: Mus musculus, BaF3; ALK-G1202del; read-out: IC50
Protocol: as §1

Ba/F3 ALK-F1174C = experiment: as above; type: cell-based; conditions: Mus musculus, BaF3, ALK-F1174C, read-out: IC50
Protocol: as §1

Ba/F3 ALK-I1171T = experiment: as above; type: cell-based; conditions: Mus musculus, BaF3; ALK-I1171T; read-out: IC50
Protocol: as §1

Ba/F3 ALK-G1269A = experiment: as above; type: cell-based; conditions: Mus musculus, BaF3; ALK-G1269A; read-out: IC50
Protocol: as §1

Ba/F3 ALK-L1152R = experiment: as above; type: cell-based; conditions: Mus musculus, BaF3; ALK-L1152R; read-out: IC50
Protocol: as §1

Ba/F3 ALK-I1171N = experiment: as above; type: cell-based; conditions: Mus musculus, BaF3; ALK-I1171N; read-out: IC50
Protocol: as §1

Ba/F3 ALK-F1174V = experiment: as above; type: cell-based; conditions: Mus musculus, BaF3; ALK-F1174V; read-out: IC50
Protocol: as §1

Ba/F3 ALK-L1152P = experiment: as above; type: cell-based; conditions: Mus musculus, BaF3; ALK-L1152P; read-out: IC50
Protocol: as §1

Ba/F3 ALK-F1174L = experiment: as above; type: cell-based; conditions: Mus musculus, BaF3; ALK-F1174L; read-out: IC50
Protocol: as §1

[1] = Tissue distribution of total radioactivity after [14C]WX-0593; type: in vivo, SD rats
Protocol: At 0.5 h after drug administration, the total radioactivity was mainly distributed in the gastrointestinal tract, liver, oesophagus, and adrenal glands. […] The distribution of total radioactivity in other tissues in descending order was lungs, kidneys, spleen, pancreas, lymph nodes, heart, uterus and ovaries, plasma, thymus, prostate, whole blood, skeletal muscles, skin, testis and epididymis, and whole brain. […] Only the total radioactivity of skeletal muscles (1417 ng Eq./g), whole blood (1366 ng Eq./g), body fat (1079 ng Eq./g), testis and epididymis (619 ng Eq./g), and whole brain (114 ng Eq./g) were lower than that of plasma at the same time point. […] At the last sampling time point (72 h), most total radioactivity had been cleared from the body and only the spleen, adrenal glands, liver, testis and epididymis, kidneys, lymph nodes, uterus and ovaries, intestinal wall, lungs, and thymus had been traced small amount of radioactivity.

op-kappa = op-kappa (Homo sapiens, UniProt P41145); experiment: GPCR antagonist screening assay; type: cell-based
[2] = Metabolite identification in plasma; type: in vivo, cynomolgus monkey; conditions: oral WX-0593
Excerpt: Under current experimental conditions, 1 metabolite in addition to the parent drug was detected in monkey plasma: a demethylation metabolite, M2 (MW = 554.23, P - CH2). Based on the % peak area from mass spectrometry, the drug exists primarily as the parent drug in the plasma of both male and female monkeys (99.06% in females and 99.47% in males). Metabolite M2 (0.94% in females and 0.53% in males) was a secondary metabolite. Based on the types of metabolites, it is speculated that WX-0593 is mainly metabolized through demethylation after oral administration in monkeys. There was no significant difference in metabolites between female and male monkeys.

[3] = 0.5 h, oral [14C]WX-0593 8 mg/kg

op-kappa, sequence (P41145 whole entry): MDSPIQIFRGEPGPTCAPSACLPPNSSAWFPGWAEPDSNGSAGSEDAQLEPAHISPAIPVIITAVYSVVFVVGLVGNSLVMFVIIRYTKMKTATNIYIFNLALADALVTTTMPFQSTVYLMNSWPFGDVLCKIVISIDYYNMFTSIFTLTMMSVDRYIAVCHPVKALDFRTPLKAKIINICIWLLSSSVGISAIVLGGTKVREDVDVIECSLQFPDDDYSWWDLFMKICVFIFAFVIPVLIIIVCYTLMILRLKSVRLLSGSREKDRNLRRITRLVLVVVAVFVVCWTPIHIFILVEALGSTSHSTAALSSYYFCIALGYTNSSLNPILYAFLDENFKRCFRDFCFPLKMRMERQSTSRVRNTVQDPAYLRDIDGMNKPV

In the case of COc1cc(N2CCC3(CCN(C)CC3)CC2)ccc1Nc1ncc(Cl)c(Nc2ccccc2P(C)(C)=O)n1 [WX-0593], the growth inhibition (Karpas299 (NPM-ALK)) was “significantly inhibits the growth”, the pIC50 (Ba/F3 ALK-T1151Tins) was 7.92 and the pIC50 (Ba/F3 ALK-C1156Y) was 8.05. It also gave a pIC50 (Ba/F3 ALK-G1202R) of 7.02, a pIC50 (Ba/F3 ALK-WT) of 7.68 and a pIC50 (Ba/F3 ALK-I1171S; first listing (r12)) of 7.49. For the same compound, the pIC50 (Ba/F3 ALK-I1171S; second listing (r19)) was 7.67, the pIC50 (Ba/F3 ALK-L1196M) was 7.44 and the pIC50 (Ba/F3 ALK-V1180L) was 8.08. It also gave a pIC50 (Ba/F3 ALK-G1202del) of 6.03, a pIC50 (Ba/F3 ALK-F1174C; first listing (r10)) of 7.44 and a pIC50 (Ba/F3 ALK-F1174C; second listing (r15)) of 7.53. For the same compound, the pIC50 (Ba/F3 ALK-I1171T) was 7.95, the pIC50 (Ba/F3 ALK-G1269A) was 7.44 and the pIC50 (Ba/F3 ALK-L1152R) was 8.34. For the same compound, the pIC50 (Ba/F3 ALK-I1171N) was 7.75, the pIC50 (Ba/F3 ALK-F1174V) was 7.65 and the pIC50 (Ba/F3 ALK-L1152P) was 8.82. The pIC50 (Ba/F3 ALK-F1174L) was 7.44, the “total radioactivity relative to plasma, adrenal glands” value ([1]; 0.5 h) was 8.76 times and the “total radioactivity relative to plasma, intestinal wall” value ([1]; 0.5 h) was 28.1 times. For the same compound, the “total radioactivity relative to plasma, liver” value ([1]; 0.5 h) was 9.96 times, the “total radioactivity relative to plasma, oesophagus” value ([1]; 0.5 h) was 9.07 times and the “total radioactivity relative to plasma, stomach wall” value ([1]; 0.5 h) was 18.6 times. For the same compound, the “mean total radioactivity, adrenal glands” value [1, 3] was 13334 ng Eq./g, the “mean total radioactivity, intestinal wall” value [1, 3] was 42737 ng Eq./g and the “mean total radioactivity, liver” value [1, 3] was 15160 ng Eq./g. For the same compound, the “mean total radioactivity, oesophagus” value [1, 3] was 13803 ng Eq./g, the “mean total radioactivity, plasma” value [1, 3] was 1522 ng Eq./g and the “mean total radioactivity, stomach wall” value [1, 3] was 28265 ng Eq./g. The “total radioactivity, body fat” value ([1]; 3 h) was 1079 ng Eq./g, the “total radioactivity, plasma” value ([1]; 3 h) was 2062 ng Eq./g and the “total radioactivity, skeletal muscles” value ([1]; 3 h) was 1417 ng Eq./g. The “total radioactivity, testis and epididymis” value ([1]; 3 h) was 619 ng Eq./g, the “total radioactivity, whole blood” value ([1]; 3 h) was 1366 ng Eq./g and the “total radioactivity, whole brain” value ([1]; 3 h) was 114 ng Eq./g. For the same compound, the “mean total radioactivity, adrenal glands” value ([1]; 72 h) was 1296 ng Eq./g, the “mean total radioactivity, intestinal wall” value ([1]; 72 h) was 129 ng Eq./g and the “mean total radioactivity, kidneys” value ([1]; 72 h) was 438 ng Eq./g. The “mean total radioactivity, liver” value ([1]; 72 h) was 922 ng Eq./g, the “mean total radioactivity, lungs” value ([1]; 72 h) was 103 ng Eq./g and the “mean total radioactivity, lymph nodes” value ([1]; 72 h) was 292 ng Eq./g. For the same compound, the “mean total radioactivity, spleen” value ([1]; 72 h) was 1883 ng Eq./g, the “mean total radioactivity, testis and epididymis” value ([1]; 72 h) was 504 ng Eq./g and the “mean total radioactivity, thymus” value ([1]; 72 h) was 95.8 ng Eq./g. For the same compound, the “mean total radioactivity, uterus and ovaries” value ([1]; 72 h) was 187 ng Eq./g, the pIC50 (op-kappa) was under 5.00 and the “% peak area from mass spectrometry in plasma” value ([2]; female monkeys) was 99.06%. For the same compound, the “% peak area from mass spectrometry in plasma” value ([2]; male monkeys) was 99.47%.
